Data as given in US20240158446A1, “CYCLIC COMPOUND HAVING SELECTIVE INHIBITORY ACTION ON KRAS OVER HRAS AND NRAS” (CHUGAI SEIYAKU KABUSHIKI KAISHA, priority 2021, published 2024).
pKd: −log10 of the molar value.

Assays:
[1] = biological target: GDP-bound KRAS wild-type protein (Homo sapiens, UniProt P01116); assay: Binding to KRAS by surface plasmon resonance (SPR), Single Cycle Kinetics; conditions: SPR, Single Cycle Kinetics, GDP-bound KRAS wild-type protein; read-out: KRAS KD
[2] = biological target: GDP-bound NRAS wild-type protein (Homo sapiens, UniProt P01111); assay: Binding to NRAS by surface plasmon resonance (SPR), Single Cycle Kinetics; conditions: ratio of KD for GDP-bound NRAS wild-type protein to KD for KRAS, SPR
[3] = biological target: GDP-bound HRAS wild-type protein (Homo sapiens, UniProt P01112); assay: Binding to HRAS by surface plasmon resonance (SPR), Single Cycle Kinetics; conditions: ratio of KD for GDP-bound HRAS wild-type protein to KD for KRAS, SPR
[4] = tested on: human lung cancer strain NCI-H441; assay: cells; conditions: NCI-H441, 96 h, read-out: NCI-H441 IC50 (nM), NCI-H441 cell proliferation, 4 days, CellTiter-Glo;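 note: cell proliferation inhibition after four days measured by CellTiter-Glo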

Sequence of GDP-bound HRAS wild-type protein (P01112 whole entry): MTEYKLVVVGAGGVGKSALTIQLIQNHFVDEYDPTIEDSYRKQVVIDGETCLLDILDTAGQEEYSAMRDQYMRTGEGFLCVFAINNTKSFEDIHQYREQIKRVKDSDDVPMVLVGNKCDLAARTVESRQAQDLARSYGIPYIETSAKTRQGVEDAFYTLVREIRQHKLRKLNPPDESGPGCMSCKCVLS
Sequence of GDP-bound KRAS wild-type protein (P01116 whole entry): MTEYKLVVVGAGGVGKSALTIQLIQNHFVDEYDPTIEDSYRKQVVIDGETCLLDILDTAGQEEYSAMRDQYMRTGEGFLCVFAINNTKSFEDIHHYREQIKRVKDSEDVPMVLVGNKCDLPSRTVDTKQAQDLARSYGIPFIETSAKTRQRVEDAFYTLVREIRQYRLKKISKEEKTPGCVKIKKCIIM
Sequence of GDP-bound NRAS wild-type protein (P01111 whole entry): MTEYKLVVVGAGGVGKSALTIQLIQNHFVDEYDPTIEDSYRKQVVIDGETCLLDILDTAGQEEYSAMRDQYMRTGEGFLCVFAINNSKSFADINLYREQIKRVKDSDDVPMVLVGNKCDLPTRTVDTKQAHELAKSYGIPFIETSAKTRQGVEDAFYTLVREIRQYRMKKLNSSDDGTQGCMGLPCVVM

| SMILES | pKd [1] | IC50 [4] | NRAS/KRAS (KD ratio) [2] | HRAS/KRAS (KD ratio) [3] |
| --- | --- | --- | --- | --- |
| CC[C@H](C)[C@@H]1NC(=O)[C@H](CC)N(C)C(=O)C[C@@H](C(=O)N(C)CC)N(C)C(=O)[C@H](C2CCCC2)N(C)C(=O)C2(CC(C)(C)C2)NC(=O)[C@@H]2C[C@@H](C)CN2C(=O)[C@H](CCc2ccc(C(F)(F)F)c(OC)c2)NC(=O)CN(C)C(=O)[C@H](Cc2ccc(C)cc2)N2CC/C=C\C[C@@H](C2=O)N(C)C(=O)CN(C)C1=O [PP1870] | 9.72 | 12.4 nM | A (a compound having 10 or more and less than 20 is denoted as A) | A (a compound having 10 or more and less than 20 is denoted as A) |
| CCC[C@H]1C(=O)N[C@@H]([C@@H](C)CC)C(=O)N(C)CC(=O)N(C)[C@H]2C/C=C\CCN(C2=O)[C@@H](Cc2ccc(C)cc2)C(=O)N(C)CC(=O)N[C@@H](CCc2ccc(C(F)(F)F)c(OC)c2)C(=O)N2C[C@H](OCC)C[C@H]2C(=O)NC2(CCC2)C(=O)N(C)[C@@H](C2CCCC2)C(=O)N(C)[C@H](C(=O)N(C)C)CC(=O)N1C [PP1871] | 10.00 | 13.1 nM | A (a compound having 10 or more and less than 20 is denoted as A) | A (a compound having 10 or more and less than 20 is denoted as A) |
| CCO[C@@H]1C[C@H]2C(=O)NC3(CC(C)(C)C3)C(=O)N(C)[C@@H](C3CCCC3)C(=O)N(C)[C@H](C(=O)N(C)CC)CC(=O)N(C)[C@@H](CC)C(=O)N[C@@H]([C@@H](C)CC)C(=O)N(C)CC(=O)N(C)[C@H]3C/C=C\CCN(C3=O)[C@@H](Cc3ccc(C)cc3)C(=O)N(C)CC(=O)N[C@@H](CCc3ccc(C(F)(F)F)c(OC)c3)C(=O)N2C1 [PP1872] | 9.92 | 12.4 nM | A (a compound having 10 or more and less than 20 is denoted as A) | A (a compound having 10 or more and less than 20 is denoted as A) |
| CCO[C@@H]1C[C@H]2C(=O)NC3(CC(C)(C)C3)C(=O)N(C)[C@@H](C3CCCC3)C(=O)N(C)[C@H](C(=O)N(C)C)CC(=O)N(C)[C@@H](CC)C(=O)N[C@@H]([C@@H](C)CC)C(=O)N(C)CC(=O)N(C)[C@H]3C/C=C\CCN(C3=O)[C@@H](Cc3ccc(C)cc3)C(=O)N(C)CC(=O)N[C@@H](CCc3ccc(C(F)(F)F)c(OC)c3)C(=O)N2C1 [PP1873] | 10.12 | 8.5 nM | A (a compound having 10 or more and less than 20 is denoted as A) | B (a compound having 3 or more and less than 10 is denoted as B) |
| CC[C@H](C)[C@@H]1NC(=O)[C@H](CC)N(C)C(=O)C[C@@H](C(=O)N(C)CC)N(C)C(=O)[C@H](C2CCCC2)N(C)C(=O)C2(CC(C)(C)C2)NC(=O)[C@@H]2C[C@@H](C)CN2C(=O)[C@H](CCc2ccc(C(F)(F)F)c(Cl)c2)NC(=O)CN(C)C(=O)[C@H](Cc2ccc(C)cc2)N2CC/C=C\C[C@@H](C2=O)N(C)C(=O)CN(C)C1=O [PP1876] | 9.70 | 23 nM | A (a compound having 10 or more and less than 20 is denoted as A) | A (a compound having 10 or more and less than 20 is denoted as A) |
| CCO[C@@H]1C[C@H]2C(=O)NC3(CC(C)(C)C3)C(=O)N(C)[C@@H](C3CCCC3)C(=O)N(C)[C@H](C(=O)N(CC)CC)CC(=O)N(C)[C@@H](CC)C(=O)N[C@@H]([C@@H](C)CC)C(=O)N(C)CC(=O)N(C)[C@H]3C/C=C\CCN(C3=O)[C@@H](Cc3ccc(C)cc3)C(=O)N(C)CC(=O)N[C@@H](CCc3ccc(C(F)(F)F)c(OC)c3)C(=O)N2C1 [PP1881] | 9.54 | 16.7 nM | A (a compound having 10 or more and less than 20 is denoted as A) | A (a compound having 10 or more and less than 20 is denoted as A) |
| CCO[C@@H]1C[C@H]2C(=O)NC3(CC(C)(C)C3)C(=O)N(C)[C@@H](C3CCCC3)C(=O)N(C)[C@H](C(=O)N(C)CC)CC(=O)N(C)[C@@H](CC)C(=O)N[C@@H]([C@@H](C)CC)C(=O)N(C)CC(=O)N(C)[C@H]3C/C=C\CCN(C3=O)[C@@H](Cc3ccc(C)cc3)C(=O)N(C)CC(=O)N[C@@H](CCc3cc(F)c(C(F)(F)F)c(F)c3)C(=O)N2C1 [PP1886] | 9.92 | 1.9 nM | A (a compound having 10 or more and less than 20 is denoted as A) | B (a compound having 3 or more and less than 10 is denoted as B) |

The remaining compounds from weak to strong by pKd [1], led by results:

| pKd [1] | IC50 [4] | SMILES | NRAS/KRAS (KD ratio) [2] | HRAS/KRAS (KD ratio) [3] |
| --- | --- | --- | --- | --- |
| 9.54 | 2.6 nM | CCC[C@H]1C(=O)N[C@@H]([C@@H](C)CC)C(=O)N(C)CC(=O)N(C)[C@H]2C/C=C\CCN(C2=O)[C@@H](Cc2ccc(C)cc2)C(=O)N(C)CC(=O)N[C@@H](CCc2ccc(C(F)(F)F)c(OC)c2)C(=O)N2C[C@H](C)C[C@H]2C(=O)NC2(CC(C)(C)C2)C(=O)N(C)[C@@H](C2CCCC2)C(=O)N(C)[C@H](C(=O)N(C)CC)CC(=O)N1C [PP1891] | A (a compound having 10 or more and less than 20 is denoted as A) | A (a compound having 10 or more and less than 20 is denoted as A) |
| 9.55 | 24 nM | CCO[C@@H]1C[C@H]2C(=O)NC3(CC(C)(C)C3)C(=O)N(C)[C@@H](C3CCCC3)C(=O)N(C)[C@H](C(=O)N(CC)CC)CC(=O)N(C)[C@@H](CC)C(=O)N[C@@H]([C@@H](C)CC)C(=O)N(C)CC(=O)N(C)[C@H]3C/C=C\CCN(C3=O)[C@@H](Cc3ccc(C)cc3)C(=O)N(C)CC(=O)N[C@@H](CCc3ccc(C(F)(F)F)c(Cl)c3)C(=O)N2C1 [PP1883] | A (a compound having 10 or more and less than 20 is denoted as A) | A (a compound having 10 or more and less than 20 is denoted as A) |
| 9.64 | 18.3 nM | CC[C@H](C)[C@@H]1NC(=O)[C@H](CC(C)C)N(C)C(=O)C[C@@H](C(=O)N(CC)CC)N(C)C(=O)[C@H](C2CCCC2)N(C)C(=O)C2(CCC2)NC(=O)[C@@H]2C[C@H](C)CN2C(=O)[C@H](CCc2ccc(C(F)(F)F)c(OC)c2)NC(=O)CN(C)C(=O)[C@H](Cc2ccc(C)cc2)N2CC/C=C\C[C@@H](C2=O)N(C)C(=O)CN(C)C1=O [PP1885] | AA (a compound having 20 or more is denoted as AA) | A (a compound having 10 or more and less than 20 is denoted as A) |
| 9.68 | 12.5 nM | CCC[C@H]1C(=O)N[C@@H]([C@@H](C)CC)C(=O)N(C)CC(=O)N(C)[C@H]2C/C=C\CCN(C2=O)[C@@H](Cc2ccc(C)cc2)C(=O)N(C)CC(=O)N[C@@H](CCc2ccc(C(F)(F)F)c(OC)c2)C(=O)N2C[C@@H](C)C[C@H]2C(=O)NC2(CC(C)(C)C2)C(=O)N(C)[C@@H](C2CCCC2)C(=O)N(C)[C@H](C(=O)N(C)CC)CC(=O)N1C [PP1889] | A (a compound having 10 or more and less than 20 is denoted as A) | B (a compound having 3 or more and less than 10 is denoted as B) |
| 9.74 | 16.9 nM | CCO[C@@H]1C[C@H]2C(=O)NC3(CCC3)C(=O)N(C)[C@@H](C3CCCC3)C(=O)N(C)[C@H](C(=O)N(C)CC)CC(=O)N(C)[C@@H](CC3CC3)C(=O)N[C@@H]([C@@H](C)CC)C(=O)N(C)CC(=O)N(C)[C@H]3C/C=C\CCN(C3=O)[C@@H](Cc3ccc(C)cc3)C(=O)N(C)CC(=O)N[C@@H](CCc3ccc(C(F)(F)F)c(OC)c3)C(=O)N2C1 [PP1879] | A (a compound having 10 or more and less than 20 is denoted as A) | B (a compound having 3 or more and less than 10 is denoted as B) |
| 9.82 | 15.6 nM | CCO[C@@H]1C[C@H]2C(=O)NC3(CC(C)(C)C3)C(=O)N(C)[C@@H](C3CCCC3)C(=O)N(C)[C@H](C(=O)N(C)CC)CC(=O)N(C)[C@@H](CC)C(=O)N[C@@H]([C@@H](C)CC)C(=O)N(C)CC(=O)N(C)[C@H]3C/C=C\CCN(C3=O)[C@@H](Cc3ccc(C)cc3)C(=O)N(C)CC(=O)N[C@@H](CCc3ccc(C(F)(F)F)c(Cl)c3)C(=O)N2C1 [PP1880] | A (a compound having 10 or more and less than 20 is denoted as A) | B (a compound having 3 or more and less than 10 is denoted as B) |
| 9.89 | 9.9 nM | CC[C@H](C)[C@@H]1NC(=O)[C@H](CC)N(C)C(=O)C[C@@H](C(=O)N(C)CC)N(C)C(=O)[C@H](C2CCCC2)N(C)C(=O)C2(CC(C)(C)C2)NC(=O)[C@@H]2C[C@H](C)CN2C(=O)[C@H](CCc2ccc(C(F)(F)F)c(Cl)c2)NC(=O)CN(C)C(=O)[C@H](Cc2ccc(C)cc2)N2CC/C=C\C[C@@H](C2=O)N(C)C(=O)CN(C)C1=O [PP1874] | A (a compound having 10 or more and less than 20 is denoted as A) | A (a compound having 10 or more and less than 20 is denoted as A) |
| 10.13 | 4.8 nM | CCC[C@H]1C(=O)N[C@@H]([C@@H](C)CC)C(=O)N(C)CC(=O)N(C)[C@H]2C/C=C\CCN(C2=O)[C@@H](Cc2ccc(C)cc2)C(=O)N(C)CC(=O)N[C@@H](CCc2ccc(C(F)(F)F)c(OC)c2)C(=O)N2C[C@H](OCC)C[C@H]2C(=O)NC2(CC(C)(C)C2)C(=O)N(C)[C@@H](C2CCCC2)C(=O)N(C)[C@H](C(=O)N(C)C)CC(=O)N1C [PP1892] | A (a compound having 10 or more and less than 20 is denoted as A) | B (a compound having 3 or more and less than 10 is denoted as B) |
| 10.20 | 8.8 nM | CCO[C@@H]1C[C@H]2C(=O)NC3(CC(C)(C)C3)C(=O)N(C)[C@@H](C3CCCC3)C(=O)N(C)[C@H](C(=O)N(C)C)CC(=O)N(C)[C@@H](CC)C(=O)N[C@@H]([C@@H](C)CC)C(=O)N(C)CC(=O)N(C)[C@H]3C/C=C\CCN(C3=O)[C@@H](Cc3ccc(C)cc3)C(=O)N(C)CC(=O)N[C@@H](CCc3ccc(C(F)(F)F)c(Cl)c3)C(=O)N2C1 [PP1878] | A (a compound having 10 or more and less than 20 is denoted as A) | A (a compound having 10 or more and less than 20 is denoted as A) |
